Data on 27 molecules can be found in US8697709B2, “Fused ring heteroaryl kinase inhibitors” (The Regents of the University of California, priority 2008, dated 2014).

Positions count from the first letter of the chain named. Read-outs that look alike come from different tables or passages of the source.

Holding throughout (type): biochemical
For one assay, the target named is T1, Abl (Homo sapiens, UniProt P00519).
T1 sequence (P00519 242-493 limits assumed): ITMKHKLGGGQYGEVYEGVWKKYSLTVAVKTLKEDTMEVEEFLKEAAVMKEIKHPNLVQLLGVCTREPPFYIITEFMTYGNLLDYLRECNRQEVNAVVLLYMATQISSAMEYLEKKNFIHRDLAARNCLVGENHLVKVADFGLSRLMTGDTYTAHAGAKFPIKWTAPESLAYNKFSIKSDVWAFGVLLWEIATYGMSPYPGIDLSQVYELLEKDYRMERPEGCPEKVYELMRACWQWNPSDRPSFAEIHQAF
Nature of the assay: In vitro kinase assay (32P peptide phosphorylation), WT Abl. The note with it: read-out: IC50 WT Abl.

Another assay concerns the target c-Src (Gallus gallus, UniProt P00523). Nature of the assay: In vitro kinase assay (32P peptide phosphorylation), WT Src.
For the next assay, the target named is T2, T315A Abl (Homo sapiens, UniProt P00519, T315A).
T2 sequence (P00519 242-493 T315A limits assumed): T1 sequence (P00519 242-493 limits assumed) with T74A
Nature of the assay: In vitro kinase assay, T315A Abl. The note with it: Table 1a. The method, then: (§1) Kinase reactions were initiated by the addition of […] cold ATP supplemented with 5 mCi γ^32P ATP and allowed to proceed at room temperature (RT). At 10 minutes […] of the reactions were spotted onto phosphocellulose sheets (P81, Whatman) and subsequently soaked in wash buffer (1.0% (v/v) phosphoric acid). The sheets were washed five times in buffer, dried, and transferred radioactivity was measured by phosphorimaging using a TyphoonTM scanner (Molecular Dynamics). Radioactive counts were quantified using ImageQuantTM software, and titration data were fit to a sigmoidal dose response to derive IC50 values using the Prism® software package. Dose responses were based on a 12 point inhibitor titration, using 1⁄3 dilutions starting from […]. Experiments were completed 2-4 times to derive mean values.

For a further assay, the target named is T338G Src (Gallus gallus, UniProt P00523, T338G). Put plainly: In vitro kinase assay, T338G Src. The method, then: as §1
[1] abbreviates: Table 1a, read-out: IC50 WT Src.
[2] abbreviates: Table 1b, read-out: IC50 WT Src.

Regarding `Nc1ncnc2c1c(-c1ccc(NC(=O)Nc3cccc(C(F)(F)F)c3)cc1)nn2[C@H]1CCN(C(=O)Nc2cccc(C(F)(F)F)c2)C1` [AD71c, (S)-3-(4-amino-3-(4-(3-(3-(trifluoromethyl)phenyl)ureido)phenyl)-1H-pyrazolo[3,4-d]pyrimidin-1-yl)-N-(3-(trifluoromethyl)phenyl)pyrrolidine-1-carboxamide], the IC50 (usually the concentration at which inhibition is half-maximal) is greater than 5 µM at Abl (Table 1a) and 1 to 5 µM at c-Src (setting [1]).

As for `Nc1ncnc2c1c(Cc1cccc(NC(=O)Nc3cccc(C(F)(F)F)c3)c1)nn2C1CCCC1` [BB10, 1-(3-((4-amino-1-cyclopentyl-1H-pyrazolo[3,4-d]pyrimidin-3-yl)methyl)phenyl)-3-(3-(trifluoromethyl)phenyl)urea], the IC50 at Abl (Table 1a) is 1 to 5 µM; against T315A Abl, less than 1 µM; at c-Src (setting [1]), less than 1 µM; against T338G Src (Table 1a) it was less than 1 µM. Moreover, the “selectivity towards c-Src over Abl” value at c-Src (ratio of IC50 values c-Src vs Abl) is reported as “approximately 5 fold”.

As for `Nc1ncnc2c1c(-c1ccc(NC(=O)c3cccc(C(F)(F)F)c3)cc1)nn2[C@@H]1CCNC1` [AD72, N-(4-(4-amino-1-((R)-pyrrolidin-3-yl)-1H-pyrazolo[3,4-d]pyrimidin-3-yl)phenyl)-3-(trifluoromethyl)benzamide], the IC50 at Abl (Table 1b) and at c-Src (setting [2]) was greater than 5 µM in each case.

Regarding `CC(C)(C)OC(=O)N1CC[C@@H](n2nc(-c3ccc(NC(=O)Nc4cccc(C(F)(F)F)c4)cc3)c3c(N)ncnc32)C1` [AD79, (R)-tert-butyl 3-(4-amino-3-(4-(3-(3-(trifluoromethyl)phenyl)ureido)phenyl)-1H-pyrazolo[3,4-d]pyrimidin-1-yl)pyrrolidine-1-carboxylate], the IC50 was 1 to 5 µM on Abl (Table 1a) and less than 1 µM at c-Src (setting [1]).

Take `CC(C)(C)n1nc(Cc2cccc(NC(=O)Nc3cccc(C(F)(F)F)c3)c2)c2c(N)ncnc21` [AD26, 1-(3-((1-tert-butyl-4-amino-1H-pyrazolo[3,4-d]pyrimidin-3-yl)methyl)phenyl)-3-(3-(trifluoromethyl)phenyl)urea]: the IC50 at Abl (Table 1a) was less than 1 µM; at T315A Abl, less than 1 µM; at c-Src (setting [1]) it was less than 1 µM; on c-Src (unphosphorylated kinase domain, 100 mM ATP, read-out: IC50 for c-Src), 0.48 µM; against T338G Src (Table 1a), less than 1 µM.

On to `Nc1ncnc2c1c(-c1ccc(NC(=O)Nc3cccc(C(F)(F)F)c3)cc1)nn2CCCO` [AD64, 1-(4-(4-amino-1-(3-hydroxypropyl)-1H-pyrazolo[3,4-d]pyrimidin-3-yl)phenyl)-3-(3-(trifluoromethyl)phenyl)urea], for which the IC50 on Abl (Table 1b) is greater than 5 µM; on c-Src (setting [2]), less than 1 µM.

For the molecule `Cn1nc(Cc2ccc(NC(=O)c3cccc(C(F)(F)F)c3)cc2)c2c(N)ncnc21` [AD7], the IC50 is 1 to 5 µM against T315A Abl, 1 to 5 µM on c-Src (setting [1]) and greater than 5 µM at T338G Src (Table 1a).

As to `Nc1ncnc2c1c(-c1ccc(NC(=O)c3cccc(C(F)(F)F)c3)cc1)nn2[C@H]1CCOC1` [AD67, N-(4-(4-amino-1-((S)-tetrahydrofuran-3-yl)-1H-pyrazolo[3,4-d]pyrimidin-3-yl)phenyl)-3-(trifluoromethyl)benzamide], the IC50 at Abl (Table 1b) was 1 to 5 µM; on c-Src (setting [2]), less than 1 µM.

Take `Cn1nc(Cc2ccc(NC(=O)Nc3cccc(C(F)(F)F)c3)cc2)c2c(N)ncnc21` [AD8]: the IC50 against T315A Abl, at c-Src (setting [1]) and against T338G Src (Table 1a) was 1 to 5 µM throughout.

Consider `CC(C)(C)OC(=O)N1CC[C@H](n2nc(-c3ccc(NC(=O)Nc4cccc(C(F)(F)F)c4)cc3)c3c(N)ncnc32)C1` [AD78, (S)-tert-butyl 3-(4-amino-3-(4-(3-(3-(trifluoromethyl)phenyl)ureido)phenyl)-1H-pyrazolo[3,4-d]pyrimidin-1-yl)pyrrolidine-1-carboxylate], for which the IC50 was 1 to 5 µM at Abl (Table 1a) and less than 1 µM at c-Src (setting [1]).

Turning to `Nc1ncnc2c1c(Cc1cccc(NC(=O)c3cccc(C(F)(F)F)c3)c1)nn2CC1CC1` [BB13], the IC50 against T315A Abl was less than 1 µM; on c-Src (setting [1]), greater than 5 µM; against T338G Src (Table 1a), less than 1 µM.

On to `Cn1nc(Cc2cccc(NC(=O)c3cccc(C(F)(F)F)c3)c2)c2c(N)ncnc21` [AD15], for which the IC50 was less than 1 µM against T315A Abl, greater than 5 µM at c-Src (setting [1]) and 1 to 5 µM at T338G Src (Table 1a).

For the molecule `Nc1ncnc2c1c(-c1ccc(NC(=O)Nc3cccc(C(F)(F)F)c3)cc1)nn2[C@@H]1CCN(C(=O)Nc2cccc(C(F)(F)F)c2)C1` [AD73c, (R)-3-(4-amino-3-(4-(3-(3-(trifluoromethyl)phenyl)ureido)phenyl)-1H-pyrazolo[3,4-d]pyrimidin-1-yl)-N-(3-(trifluoromethyl)phenyl)pyrrolidine-1-carboxamide], the IC50 at Abl (Table 1a) was greater than 5 µM; on c-Src (setting [1]), 1 to 5 µM.

Consider `Nc1ncnc2c1c(-c1ccc(NC(=O)Nc3cccc(C(F)(F)F)c3)cc1)nn2[C@@H]1CCOC1` [AD69, 1-(4-(4-amino-1-((R)-tetrahydrofuran-3-yl)-1H-pyrazolo[3,4-d]pyrimidin-3-yl)phenyl)-3-(3-(trifluoromethyl)phenyl)urea], for which the IC50 was greater than 5 µM on Abl (Table 1b) and 1 to 5 µM at c-Src (setting [2]).

As to `Nc1ncnc2c1c(-c1ccc(NC(=O)c3cccc(C(F)(F)F)c3)cc1)nn2[C@H]1CCNC1` [AD70, N-(4-(4-amino-1-((S)-pyrrolidin-3-yl)-1H-pyrazolo[3,4-d]pyrimidin-3-yl)phenyl)-3-(trifluoromethyl)benzamide], the IC50 on Abl (Table 1b) and at c-Src (setting [2]) was greater than 5 µM each time.

For `CC(C)(C)n1nc(Cc2cccc(NC(=O)c3cccc(C(F)(F)F)c3)c2)c2c(N)ncnc21` [AD25], the IC50 against T315A Abl is less than 1 µM; on c-Src (setting [1]), 1 to 5 µM; against T338G Src (Table 1a), less than 1 µM.

On to `Nc1ncnc2c1c(Cc1cccc(NC(=O)Nc3cccc(C(F)(F)F)c3)c1)nn2CC1CC1` [BB14], for which the IC50 on T315A Abl, at c-Src (setting [1]) and against T338G Src (Table 1a) was less than 1 µM each time.

In the case of `Nc1ncnc2c1c(Cc1cccc(NC(=O)c3cccc(C(F)(F)F)c3)c1)nn2Cc1ccccc1` [BB5, N-(3-((4-amino-1-benzyl-1H-pyrazolo[3,4-d]pyrimidin-3-yl)methyl)phenyl)-3-(trifluoromethyl)benzamide], the IC50 against T315A Abl, at c-Src (setting [1]) and against T338G Src (Table 1a) was 1 to 5 µM in each case.

Consider `Nc1ncnc2c1c(-c1ccc(NC(=O)Nc3cccc(C(F)(F)F)c3)cc1)nn2[C@H]1CCOC1` [AD66, 1-(4-(4-amino-1-((S)-tetrahydrofuran-3-yl)-1H-pyrazolo[3,4-d]pyrimidin-3-yl)phenyl)-3-(3-(trifluoromethyl)phenyl)urea], for which the IC50 on Abl (Table 1b) and on c-Src (setting [2]) was less than 1 µM throughout.

In the case of `Nc1ncnc2c1c(-c1ccc(NC(=O)c3cccc(C(F)(F)F)c3)cc1)nn2CCCO` [AD65, N-(4-(4-amino-1-(3-hydroxypropyl)-1H-pyrazolo[3,4-d]pyrimidin-3-yl)phenyl)-3-(trifluoromethyl)benzamide], the IC50 at Abl (Table 1b) and on c-Src (setting [2]) was greater than 5 µM in each case.

For the molecule `CC(C)n1nc(Cc2cccc(NC(=O)c3cccc(C(F)(F)F)c3)c2)c2c(N)ncnc21` [AD35], the values for the IC50 against T315A Abl, at c-Src (setting [1]) and at T338G Src (Table 1a) were less than 1 µM, greater than 5 µM and 1 to 5 µM, respectively.

In the case of `Nc1ncnc2c1c(Cc1cccc(NC(=O)Nc3cccc(C(F)(F)F)c3)c1)nn2Cc1ccccc1` [BB6, 1-(3-((4-amino-1-benzyl-1H-pyrazolo[3,4-d]pyrimidin-3-yl)methyl)phenyl)-3-(3-(trifluoromethyl)phenyl)urea], the IC50 is less than 1 µM on T315A Abl, 1 to 5 µM at c-Src (setting [1]) and 1 to 5 µM on T338G Src (Table 1a).

Take `CC(C)n1nc(-c2cccc(NC(=O)Nc3cccc(C(F)(F)F)c3)c2)c2c(N)ncnc21` [AD53]: the results for the 50% inhibitory concentration (IC50) on c-Src (setting [2]) and against T338G Src (Table 1b) were 1 to 5 µM and less than 1 µM, respectively.

Consider `CC(C)n1nc(-c2cccc(NC(=O)c3cccc(C(F)(F)F)c3)c2)c2c(N)ncnc21` [AD52], for which the IC50 is 1 to 5 µM at c-Src (setting [2]) and less than 1 µM at T338G Src (Table 1b).

On to `Nc1ncnc2c1c(-c1ccc(NC(=O)c3cccc(C(F)(F)F)c3)cc1)nn2[C@@H]1CCOC1` [AD68, N-(4-(4-amino-1-((R)-tetrahydrofuran-3-yl)-1H-pyrazolo[3,4-d]pyrimidin-3-yl)phenyl)-3-(trifluoromethyl)benzamide], for which the IC50 on Abl (Table 1b) and on c-Src (setting [2]) was greater than 5 µM in each case.

For `Nc1ncnc2c1c(Cc1cccc(NC(=O)c3cccc(C(F)(F)F)c3)c1)nn2C1CCCC1` [BB9], the IC50 is 1 to 5 µM against T315A Abl, less than 1 µM on c-Src (setting [1]) and less than 1 µM at T338G Src (Table 1a).

With `CC(C)n1nc(-c2ccc(NC(=O)c3cccc(C(F)(F)F)c3)cc2)c2c(N)ncnc21` [AD56], the results for the IC50 at c-Src (setting [2]) and against T338G Src (Table 1b) were 1 to 5 µM and less than 1 µM, respectively.
